Measured values: ChEMBL document CHEMBL1649272, “Unbound cephalothin pharmacokinetics in adult burn patients are related to the elapsed time after injury” (Antimicrob Agents Chemother, 2009)

Tests used:
Homo sapiens [1] = assay: AUC (0 to infinity) in patient with severe burns at 1 g, iv; format: ADME, organism-based, Plasma; design: dose 1 g, time infinity, route intravenous; details: in vivo
[2] = Terminal half life in patient with severe burns at 1 g, iv; format: ADME, organism-based; details: human, in vivo, read-out: beta t1/2 (converted)
[3] = Renal clearance in patient with severe burns at 1 g, iv; format: ADME, organism-based, Kidney; details: human, in vivo, read-out: CL_renal
[4] = Renal clearance in healthy human at 1 g, iv; format: ADME, organism-based, Kidney; details: in vivo, read-out: CL_renal
[5] = Half life in patient with severe burns at 1 g, iv; format: ADME, organism-based; details: human, in vivo
Homo sapiens [6] = assay: Clearance in healthy human at 1 g, iv; details: in vivo
[7] = Plasma protein binding in patient with severe burns at 1 g, iv; format: ADME, cell-free; details: human, read-out: PPB (converted)
[8] = Cmax in patient with severe burns at 1 g, iv; format: ADME, organism-based; design: dose 1 g, route intravenous; details: human, in vivo
[9] = Mean residence time in healthy human at 1 g, iv; format: ADME, organism-based; details: in vivo
[10] = Mean residence time in patient with severe burns at 1 g, iv; format: ADME, organism-based; details: human, in vivo
[11] = Terminal half life in healthy human at 1 g, iv; format: ADME, organism-based; details: in vivo, read-out: beta t1/2 (converted)
[12] = Volume of distribution at steady state in healthy human at 1 g, iv; format: ADME, organism-based; details: in vivo, read-out: Vdss
Homo sapiens [13] = assay: Clearance in patient with severe burns at 1 g, iv; details: in vivo
[14] = Plasma protein binding in healthy human at 1 g, iv; format: ADME, cell-free; details: read-out: PPB (converted)
[15] = Cmax in healthy human at 1 g, iv; format: ADME, organism-based; design: dose 1 g, route intravenous; details: in vivo
Homo sapiens [16] = assay: AUC (0 to infinity) in healthy human at 1 g, iv; format: ADME, organism-based, Plasma; design: dose 1 g, time infinity, route intravenous; details: in vivo
[17] = Volume of distribution at steady state in patient with severe burns at 1 g, iv; format: ADME, organism-based; details: human, in vivo, read-out: Vdss
[18] = Half life in healthy human at 1 g, iv; format: ADME, organism-based; details: in vivo

AUC (Homo sapiens [1]): 12000 ng·h/mL | half-life [2]: 54.6 min | CL renal [3]: 148 mL/min | CL renal [4]: 98 mL/min | half-life [5]: 24.6 min | CL (Homo sapiens [6]): 26.3 mL/min/kg | fraction unbound [7]: 0.41 | Cmax [8]: 38700 ng/mL | MRT [9]: 22.8 min | MRT [10]: 35.4 min | half-life [11]: 44.4 min | Vd [12]: 0.6 L/kg | CL (Homo sapiens [13]): 19.8 mL/min/kg | fraction unbound [14]: 0.29 | Cmax [15]: 21300 ng/mL | AUC (Homo sapiens [16]): 9890 ng·h/mL | Vd [17]: 0.63 L/kg | half-life [18]: 15.6 min
SMILES: CC(=O)OCC1=C(C(=O)O)N2C(=O)[C@@H](NC(=O)Cc3cccs3)[C@H]2SC1 [CEPHALOTHIN]
